pIC50: −log10 of the molar value.

The text below walks through data of patent publication US10745382B2 (BRISTOL-MYERS SQUIBB COMPANY, priority 2015, dated 2020).

T1 sequence (Q9NZQ7 with tags, fused parts or gaps): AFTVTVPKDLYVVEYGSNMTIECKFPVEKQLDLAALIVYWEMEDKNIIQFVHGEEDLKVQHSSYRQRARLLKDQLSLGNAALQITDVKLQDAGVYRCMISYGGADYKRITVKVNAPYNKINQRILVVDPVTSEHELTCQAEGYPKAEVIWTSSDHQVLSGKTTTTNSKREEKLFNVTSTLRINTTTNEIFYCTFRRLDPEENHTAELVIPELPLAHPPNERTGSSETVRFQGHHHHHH

One experiment addresses T1, PD-1/PD-L1 (Homo sapiens, UniProt Q9NZQ7).
T1 construct: made in house; host or cells: HEK293T
Nature of the experiment: PD-1/PD-L1 Homogenous Time-Resolved Fluorescence (HTRF) binding assay. To be noted: PD-L1-His 10 nM, PD-1-Ig 20 nM; numeric IC50; read-out: Range or IC50. In a few lines: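 dPBS + 0.1% BSA + 0.05% Tween-20 buffer; Eu-cryptate anti-Ig 1 nM final, APC anti-His 20 nM final; HTRF read. Counter-assays: PD-1-Ig/PD-L2-His 20 & 5 nM, CD80-His/PD-L1-Ig 100 & 10 nM.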
A general note: In TR-FRET formats the signal depends on donor and acceptor labels being close together.
As for `CNC(=O)c1cccc(-c2cccc(COc3cc(OCc4cc(F)cc(F)c4)c(CN4CCC[C@H]4C(=O)O)cc3Cl)c2C)c1C` [Example 4024, (5-chloro-2-((3,5-difluorobenzyl)oxy)-4-((2,2′-dimethyl-3′-(methylcarbamoyl)-[1,1′-biphenyl]-3-yl)methoxy)benzyl)-L-proline], the negative-log IC50 (pIC50) was 7.06.

The same experiment, now with this note: PD-L1-His 10 nM, PD-1-Ig 20 nM; value given as range class; read-out: Range or IC50.
With `CNC(=O)c1cccc(-c2cccc(COc3cc(OCc4cncc(C#N)c4)c(CN4C[C@@H](O)C[C@H]4C(=O)O)cc3Cl)c2C)c1C` [Example 4014, (2S,4S)-1-(5-chloro-2-((5-cyanopyridin-3-yl)methoxy)-4-((2,2′-dimethyl-3′-(methylcarbamoyl)-[1,1′-biphenyl]-3-yl)methoxy)benzyl)-4-hydroxypyrrolidine-2-carboxylic Acid], the negative logarithm of the IC50 (pIC50) was 5.00 to 5.70. As for `CNC(=O)c1cccc(-c2cccc(COc3cc(OCc4cncc(C#N)c4)c(CNC(CO)CO)cc3Cl)c2C)c1C` [Example 4015, 3′-((2-chloro-5-((5-cyanopyridin-3-yl)methoxy)-4-(((1,3-dihydroxypropan-2-yl)amino)methyl)phenoxy)methyl)-N,2,2′-trimethyl-[1,1′-biphenyl]-3-carboxamide], the negative-log IC50 (pIC50) was 8.00 to 9.68. For `CNC(=O)c1cccc(-c2cccc(COc3cc(OCc4cncc(C#N)c4)c(CNC(C)(CO)CO)cc3Cl)c2C)c1C` [Example 4016, 3′-((2-chloro-5-((5-cyanopyridin-3-yl)methoxy)-4-(((1,3-dihydroxy-2-methylpropan-2-yl)amino)methyl)phenoxy)methyl)-N,2,2′-trimethyl-[1,1′-biphenyl]-3-carboxamide], the negative logarithm of the IC50 (pIC50) was 8.00 to 9.68. Turning to `CCNC(=O)c1cccc(-c2cccc(COc3cc(OCc4cc(F)cc(F)c4)c(CN4CCCC[C@H]4C(=O)O)cc3Cl)c2C)c1C` [Example 4017, (S)-1-(5-chloro-2-((3,5-difluorobenzyl)oxy)-4-((3′-(ethylcarbamoyl)-2,2′-dimethyl-[1,1′-biphenyl]-3-yl)methoxy)benzyl)piperidine-2-carboxylic Acid], the negative-log IC50 (pIC50) was 5.70 to 7.00. For the molecule `CCNC(=O)c1cccc(-c2cccc(COc3cc(OCc4cc(F)cc(F)c4)c(CN4CCC[C@H]4C(=O)O)cc3Cl)c2C)c1C` [Example 4018, (5-chloro-2-((3,5-difluorobenzyl)oxy)-4-((3′-(ethylcarbamoyl)-2,2′-dimethyl-[1,1′-biphenyl]-3-yl)methoxy)benzyl)-L-proline], the pIC50 was 5.70 to 7.00. Turning to `CCNC(=O)c1cccc(-c2cccc(COc3cc(OCc4cc(F)cc(F)c4)c(CN4C[C@H](O)C[C@H]4C(=O)O)cc3Cl)c2C)c1C` [Example 4019, (2S,4R)-1-(5-chloro-2-((3,5-difluorobenzyl)oxy)-4-((3′-(ethylcarbamoyl)-2,2′-dimethyl-[1,1′-biphenyl]-3-yl)methoxy)benzyl)-4-hydroxypyrrolidine-2-carboxylic Acid], the pIC50 was 5.70 to 7.00. With `CCNC(=O)c1cccc(-c2cccc(COc3cc(OCc4cc(F)cc(F)c4)c(CN4CCOC[C@H]4C(=O)O)cc3Cl)c2C)c1C` [Example 4020, (S)-4-(5-chloro-2-((3,5-difluorobenzyl)oxy)-4-((3′-(ethylcarbamoyl)-2,2′-dimethyl-[1,1′-biphenyl]-3-yl)methoxy)benzyl)morpholine-3-carboxylic Acid], the negative logarithm of the IC50 (pIC50) is 5.00 to 5.70. In the case of `CCNC(=O)c1cccc(-c2cccc(COc3cc(OCc4cc(F)cc(F)c4)c(CNC(CO)CO)cc3Cl)c2C)c1C` [Example 4021, 3′-((2-chloro-5-((3,5-difluorobenzyl)oxy)-4-(((1,3-dihydroxypropan-2-yl)amino)methyl)phenoxy)methyl)-N-ethyl-2,2′-dimethyl-[1,1′-biphenyl]-3-carboxamide], the negative-log IC50 (pIC50) is 5.70 to 7.00. Consider `CCNC(=O)c1cccc(-c2cccc(COc3cc(OCc4cc(F)cc(F)c4)c(CNC(C)(CO)CO)cc3Cl)c2C)c1C` [Example 4022, 3′-((2-chloro-5-((3,5-difluorobenzyl)oxy)-4-(((1,3-dihydroxy-2-methylpropan-2-yl)amino)methyl)phenoxy)methyl)-N-ethyl-2,2′-dimethyl-[1,1′-biphenyl]-3-carboxamide], for which the pIC50 is 5.70 to 7.00.

`CNC(=O)c1cccc(-c2cccc(COc3cc(OCc4cc(F)cc(F)c4)c(CN4CCCC[C@H]4C(=O)O)cc3Cl)c2C)c1C` [Example 4023, (S)-1-(5-chloro-2-((3,5-difluorobenzyl)oxy)-4-((2,2′-dimethyl-3′-(methylcarbamoyl)-[1,1′-biphenyl]-3-yl)methoxy)benzyl)piperidine-2-carboxylic Acid]: the pIC50 is 5.70 to 7.00. For the molecule `CNC(=O)c1cccc(-c2cccc(COc3cc(OCc4cc(F)cc(F)c4)c(CN4C[C@H](O)C[C@H]4C(=O)O)cc3Cl)c2C)c1C` [Example 4025, (2S,4R)-1-(5-chloro-2-((3,5-difluorobenzyl)oxy)-4-((2,2′-dimethyl-3′-(methylcarbamoyl)-[1,1′-biphenyl]-3-yl)methoxy)benzyl)-4-hydroxypyrrolidine-2-carboxylic Acid], the pIC50 is 5.70 to 7.00.

For the molecule `CNC(=O)c1cccc(-c2cccc(COc3cc(OCc4cc(F)cc(F)c4)c(CN4C[C@@H](O)C[C@H]4C(=O)O)cc3Cl)c2C)c1C` [Example 4026, (2S,4S)-1-(5-chloro-2-((3,5-difluorobenzyl)oxy)-4-((2,2′-dimethyl-3′-(methylcarbamoyl)-[1,1′-biphenyl]-3-yl)methoxy)benzyl)-4-hydroxypyrrolidine-2-carboxylic Acid], the pIC50 is 5.70 to 7.00. In the case of `CNC(=O)c1cccc(-c2cccc(COc3cc(OCc4cc(F)cc(F)c4)c(CN4CCOC[C@H]4C(=O)O)cc3Cl)c2C)c1C` [Example 4027, (S)-4-(5-chloro-2-((3,5-difluorobenzyl)oxy)-4-((2,2′-dimethyl-3′-(methylcarbamoyl)-[1,1′-biphenyl]-3-yl)methoxy)benzyl)morpholine-3-carboxylic Acid], the pIC50 is 5.00 to 5.70.

Regarding `CNC(=O)c1cccc(-c2cccc(COc3cc(OCc4cc(F)cc(F)c4)c(C=O)cc3Cl)c2C)c1C` [Example 4028, 3′-((2-chloro-5-((3,5-difluorobenzyl)oxy)-4-formylphenoxy)methyl)-N,2,2′-trimethyl-[1,1′-biphenyl]-3-carboxamide], the pIC50 is 5.70 to 7.00.

Take `CNC(=O)c1cccc(-c2cccc(COc3cc(OCc4cc(F)cc(F)c4)c(CNC(C)(CO)CO)cc3Cl)c2C)c1C` [Example 4029, 3′-((2-chloro-5-((3,5-difluorobenzyl)oxy)-4-(((1,3-dihydroxy-2-methylpropan-2-yl)amino)methyl)phenoxy)methyl)-N,2,2′-trimethyl-[1,1′-biphenyl]-3-carboxamide]: the pIC50 was 7.00 to 8.00. On to `Cc1c(COc2cc(OCc3cncc(C#N)c3)c(CN3CCCC[C@H]3C(=O)O)cc2Cl)cccc1-c1cccc(C(=O)N(C)C)c1C` [Example 4030, (S)-1-(5-chloro-2-((5-cyanopyridin-3-yl)methoxy)-4-((3′-(dimethylcarbamoyl)-2,2′-dimethyl-[1,1′-biphenyl]-3-yl)methoxy)benzyl)piperidine-2-carboxylic Acid], for which the pIC50 is 5.70 to 7.00. Regarding `Cc1c(COc2cc(OCc3cncc(C#N)c3)c(CN3CCC[C@H]3C(=O)O)cc2Cl)cccc1-c1cccc(C(=O)N(C)C)c1C` [Example 4031, (5-chloro-2-((5-cyanopyridin-3-yl)methoxy)-4-((3′-(dimethylcarbamoyl)-2,2′-dimethyl-[1,1′-biphenyl]-3-yl)methoxy)benzyl)-L-proline], the pIC50 was 5.00 to 5.70.

With `Cc1c(COc2cc(OCc3cncc(C#N)c3)c(CN3C[C@H](O)C[C@H]3C(=O)O)cc2Cl)cccc1-c1cccc(C(=O)N(C)C)c1C` [Example 4032, (2S,4R)-1-(5-chloro-2-((5-cyanopyridin-3-yl)methoxy)-4-((3′-(dimethylcarbamoyl)-2,2′-dimethyl-[1,1′-biphenyl]-3-yl)methoxy)benzyl)-4-hydroxypyrrolidine-2-carboxylic Acid], the pIC50 was 5.70 to 7.00. Take `Cc1c(COc2cc(OCc3cncc(C#N)c3)c(CN3C[C@@H](O)C[C@H]3C(=O)O)cc2Cl)cccc1-c1cccc(C(=O)N(C)C)c1C` [Example 4033, (2S,4S)-1-(5-chloro-2-((5-cyanopyridin-3-yl)methoxy)-4-((3′-(dimethylcarbamoyl)-2,2′-dimethyl-[1,1′-biphenyl]-3-yl)methoxy)benzyl)-4-hydroxypyrrolidine-2-carboxylic Acid]: the pIC50 was 5.70 to 7.00. `Cc1c(COc2cc(OCc3cncc(C#N)c3)c(CNC(CO)CO)cc2Cl)cccc1-c1cccc(C(=O)N(C)C)c1C` [Example 4034, 3′-((2-chloro-5-((5-cyanopyridin-3-yl)methoxy)-4-(((1,3-dihydroxypropan-2-yl)amino)methyl)phenoxy)methyl)-N,N,2,2′-tetramethyl-[1,1′-biphenyl]-3-carboxamide]: the pIC50 is 7.00 to 8.00. With `Cc1c(COc2cc(OCc3cncc(C#N)c3)c(CNC(C)(CO)CO)cc2Cl)cccc1-c1cccc(C(=O)N(C)C)c1C` [Example 4035, 3′-((2-chloro-5-((5-cyanopyridin-3-yl)methoxy)-4-(((1,3-dihydroxy-2-methylpropan-2-yl)amino)methyl)phenoxy)methyl)-N,N,2,2′-tetramethyl-[1,1′-biphenyl]-3-carboxamide], the negative-log IC50 (pIC50) is 7.00 to 8.00. Take `Cc1c(COc2cc(OCc3cncc(C#N)c3)c(CN3CCOC[C@H]3C(=O)O)cc2Cl)cccc1-c1cccc(C(=O)N(C)C)c1C` [Example 4036, (S)-4-(5-chloro-2-((5-cyanopyridin-3-yl)methoxy)-4-((3′-(dimethylcarbamoyl)-2,2′-dimethyl-[1,1′-biphenyl]-3-yl)methoxy)benzyl)morpholine-3-carboxylic Acid]: the pIC50 is 5.00 to 5.70.

By pIC50 is commonly meant the IC50 on a negative log10 scale, so that one unit is a factor of ten.
